The values that follow come from ChEMBL document CHEMBL3414489, “3,4-Diaza-bicyclo[4.1.0]hept-4-en-2-one phenoxypropylamine analogs of irdabisant (CEP-26401) as potent histamine-3 receptor inverse agonists with robust wake-promoting activity” (Eur J Med Chem, 2015).

In data set [1] the target is T1, Histamine H3 receptor (Homo sapiens, UniProt Q9Y5N1). Briefly: Binding affinity to human histamine H3 receptor.
For data set [2], the target named is Histamine H3 receptor (Rattus norvegicus, UniProt Q9QYN8). Put plainly: Binding affinity to rat histamine H3 receptor.
For data set [3], the species on record is Rattus norvegicus. Particulars: 30 mg/kg.
The species entered for data set [4] is Rattus norvegicus. Particulars: 10 mg/kg.
Data set [5] can be described thus: Plasma protein binding in dog. Format: ADME, cell-free, Canis lupus familiaris. The following applies: read-out: PPB (converted).
The test system of data set [6] is Rattus norvegicus. Briefly: Toxicity in rat at 3 to 30 mg/kg, ip. The following applies: in vivo. Also on record: dose 3-30 mg/kg, route intraperitoneal. Format: organism-based.
For data set [7], the target named is T2, Alpha-2C adrenergic receptor (Homo sapiens, UniProt P18825).
T2 sequence (P18825 whole entry): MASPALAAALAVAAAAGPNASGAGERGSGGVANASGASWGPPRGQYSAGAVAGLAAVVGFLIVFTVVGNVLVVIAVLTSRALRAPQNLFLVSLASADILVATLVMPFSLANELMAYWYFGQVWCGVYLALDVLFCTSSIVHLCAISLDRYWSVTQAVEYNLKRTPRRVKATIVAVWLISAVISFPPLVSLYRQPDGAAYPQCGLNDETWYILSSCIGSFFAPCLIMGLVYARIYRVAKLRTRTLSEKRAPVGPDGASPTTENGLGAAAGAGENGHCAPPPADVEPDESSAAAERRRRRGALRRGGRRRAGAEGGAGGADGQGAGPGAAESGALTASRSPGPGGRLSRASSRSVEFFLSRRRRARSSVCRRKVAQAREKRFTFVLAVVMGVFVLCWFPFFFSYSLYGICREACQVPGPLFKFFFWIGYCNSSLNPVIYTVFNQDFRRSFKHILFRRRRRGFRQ
Briefly: Inhibition of alpha-2C adrenergic receptor (unknown origin).

Data set [8] is described as follows: Aqueous solubility of the compound at pH 2. Format: physicochemical.
Data set [9] can be described thus: Half life in rat at 1 mg/kg, iv. Format: ADME, organism-based. Details: dose 1 mg/kg, route intravenous. The following applies: in vivo.
A short description of data set [10]: Half life in mouse liver microsomes. Format: ADME. For orientation: Liver microsomes are a subcellular fraction often used to study metabolism.
Data set [11] can be described thus: Plasma protein binding in rat. Format: ADME, cell-free. Particulars: read-out: PPB (converted).
Data set [12] has as its system Rattus norvegicus. Put plainly: Wake promoting activity in rat EEG/EMG model assessed as AUC of cumulative wake at 30 mg/kg, ip up to 5.5 hrs relative to vehicle-treated control. Format: functional, organism-based. Details: dose 30 mg/kg, time < 5.5 hr.
The nature of data set [13]: AUC (0 to t) in rat at 10 mg/kg, po. Format: ADME, organism-based. Also on record: dose 10 mg/kg, route oral. Particulars: plasma.
In data set [14] the target is T1, Histamine H3 receptor. Put plainly: Inverse agonist activity at human H3R expressed in CHO cells assessed as inhibition of RAMH-induced [35S]GTPgammaS binding relative to control. Format: functional, cell-based. On the technique in general: GTPγS resists hydrolysis and so accumulates on activated G proteins.
The target in data set [15] is T3, Cytochrome P450 1A2 (Homo sapiens, UniProt P05177).
T3 sequence (P05177 whole entry): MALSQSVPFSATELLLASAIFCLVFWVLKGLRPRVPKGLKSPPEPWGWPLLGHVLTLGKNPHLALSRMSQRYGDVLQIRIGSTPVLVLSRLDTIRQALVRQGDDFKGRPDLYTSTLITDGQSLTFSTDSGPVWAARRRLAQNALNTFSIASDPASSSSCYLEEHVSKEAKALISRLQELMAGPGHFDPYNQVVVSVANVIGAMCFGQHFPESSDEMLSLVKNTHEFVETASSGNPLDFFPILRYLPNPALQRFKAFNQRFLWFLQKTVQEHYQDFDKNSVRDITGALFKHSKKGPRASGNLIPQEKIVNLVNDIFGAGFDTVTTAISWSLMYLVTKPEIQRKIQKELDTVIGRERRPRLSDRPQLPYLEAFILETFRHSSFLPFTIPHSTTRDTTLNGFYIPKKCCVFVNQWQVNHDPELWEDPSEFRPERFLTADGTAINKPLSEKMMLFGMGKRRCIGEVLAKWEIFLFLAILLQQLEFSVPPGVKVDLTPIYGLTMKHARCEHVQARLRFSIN
Put plainly: Inhibition of CYP1A2 (unknown origin). Format: ADME.

Data set [16] can be described thus: Clearance in rat at 1 mg/kg, iv. It counts as ADME, organism-based. Particulars: in vivo. Details: dose 1 mg/kg, route intravenous.
A short description of data set [17]: Permeability across human Caco2 cells. It counts as ADME, cell-based. Particulars: Caco-2. For orientation: Passage across Caco-2 layers is used to estimate intestinal permeability.
Data set [18] in a line: Half life in human liver microsomes. Format: ADME.
Data set [19] has as its system Rattus norvegicus. Put plainly: Toxicity in po dosed rat. It counts as organism-based. Particulars: in vivo.
The nature of data set [20]: Oral bioavailability in rat at 10 mg/kg. Format: ADME, organism-based. The following applies: in vivo.
Data set [21] can be described thus: Half life in monkey liver microsomes. Format: ADME, Macaca mulatta. The following applies: rhesus monkey.
Data set [22] in a line: Aqueous solubility of the compound at pH 7.4. Format: physicochemical.
Data set [23] can be described thus: Half life in rat liver microsomes. Format: ADME.
The target in data set [24] is Sodium-dependent dopamine transporter (Homo sapiens, UniProt Q01959). Briefly: Inhibition of DAT (unknown origin).
For data set [25], the system named is Rattus norvegicus. Briefly: Wake promoting activity in rat EEG/EMG model assessed as AUC of cumulative wake at 3 mg/kg, ip up to 4 hrs relative to vehicle-treated control. Format: functional, organism-based. Also on record: dose 3 mg/kg, time < 4 hr.
The subject of data set [26] is Rattus norvegicus. Put plainly: Wake promoting activity in rat EEG/EMG model assessed as cumulative wake time at 3 mg/kg, ip after 22 hrs relative to vehicle-treated control. It counts as functional. Particulars: route intraperitoneal.
For data set [27], the target named is Histamine H4 receptor (Homo sapiens, UniProt Q9H3N8). Briefly: Inhibition of human H4R.
The target in data set [28] is Histamine H1 receptor (Homo sapiens, UniProt P35367). Briefly: Inhibition of human H1R.
Data set [29] is described as follows: Volume of distribution at steady state in rat at 1 mg/kg, iv. Format: ADME, organism-based. Details: dose 1 mg/kg, route intravenous. The following applies: in vivo, read-out: Vdss.
The target in data set [30] is Histamine H2 receptor (Homo sapiens, UniProt P25021). Briefly: Inhibition of human H2R.
Data set [31] can be described thus: Ratio of drug level in brain to plasma in rat at 10 mg/kg, ip after 2 hrs. Also on record: dose 10 mg/kg, route intraperitoneal. Format: ADME, organism-based. The following applies: read-out: BPR.
Data set [32] is described as follows: Plasma protein binding in human. It counts as ADME, cell-free. The following applies: read-out: PPB (converted).
Data set [33] has as its system Rattus norvegicus. Put plainly: Wake promoting activity in rat EEG/EMG model assessed as cumulative wake time at 30 mg/kg, ip after 22 hrs relative to vehicle-treated control. Particulars: route intraperitoneal. Format: functional.
The nature of data set [34]: Cmax in rat at 10 mg/kg, po. Details: dose 10 mg/kg, route oral. It counts as ADME, organism-based. Particulars: in vivo.
Data set [35] concerns Rattus norvegicus. Briefly: Wake promoting activity in rat EEG/EMG model assessed as cumulative wake time at 10 mg/kg, ip after 22 hrs relative to vehicle-treated control. Particulars: route intraperitoneal. Format: functional.
For data set [36], the species on record is Rattus norvegicus. Briefly: Inhibition of RAMH-induced dipsogenia in rat. Format: functional.

T1 sequence (Q9Y5N1 whole entry): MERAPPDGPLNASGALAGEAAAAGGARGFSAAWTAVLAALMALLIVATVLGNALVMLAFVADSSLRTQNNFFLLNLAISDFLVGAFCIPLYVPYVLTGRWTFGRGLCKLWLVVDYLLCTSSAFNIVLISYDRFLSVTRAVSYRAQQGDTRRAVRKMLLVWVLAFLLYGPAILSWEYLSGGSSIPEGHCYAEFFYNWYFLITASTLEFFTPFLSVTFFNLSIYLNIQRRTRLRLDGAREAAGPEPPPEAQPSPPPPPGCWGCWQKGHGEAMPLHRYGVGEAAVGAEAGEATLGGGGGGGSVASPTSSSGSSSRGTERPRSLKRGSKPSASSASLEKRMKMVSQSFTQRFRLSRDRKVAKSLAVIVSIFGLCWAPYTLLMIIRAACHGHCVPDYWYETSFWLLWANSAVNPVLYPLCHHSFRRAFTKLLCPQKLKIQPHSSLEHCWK
Histamine H3 receptor (Rattus norvegicus, UniProt Q9QYN8), sequence (Q9QYN8 whole entry): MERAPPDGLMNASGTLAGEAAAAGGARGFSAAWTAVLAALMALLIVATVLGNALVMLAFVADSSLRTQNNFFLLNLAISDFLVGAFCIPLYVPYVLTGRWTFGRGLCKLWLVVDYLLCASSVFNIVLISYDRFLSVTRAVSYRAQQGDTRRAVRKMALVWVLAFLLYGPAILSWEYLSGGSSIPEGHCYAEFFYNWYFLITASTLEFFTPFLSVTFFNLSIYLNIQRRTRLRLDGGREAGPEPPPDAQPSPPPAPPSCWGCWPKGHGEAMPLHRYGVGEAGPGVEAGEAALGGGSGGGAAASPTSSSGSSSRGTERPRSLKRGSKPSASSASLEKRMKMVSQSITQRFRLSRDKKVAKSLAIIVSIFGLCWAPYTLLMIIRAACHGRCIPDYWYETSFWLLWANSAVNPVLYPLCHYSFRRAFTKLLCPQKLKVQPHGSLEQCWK
Histamine H2 receptor, sequence (P25021 whole entry): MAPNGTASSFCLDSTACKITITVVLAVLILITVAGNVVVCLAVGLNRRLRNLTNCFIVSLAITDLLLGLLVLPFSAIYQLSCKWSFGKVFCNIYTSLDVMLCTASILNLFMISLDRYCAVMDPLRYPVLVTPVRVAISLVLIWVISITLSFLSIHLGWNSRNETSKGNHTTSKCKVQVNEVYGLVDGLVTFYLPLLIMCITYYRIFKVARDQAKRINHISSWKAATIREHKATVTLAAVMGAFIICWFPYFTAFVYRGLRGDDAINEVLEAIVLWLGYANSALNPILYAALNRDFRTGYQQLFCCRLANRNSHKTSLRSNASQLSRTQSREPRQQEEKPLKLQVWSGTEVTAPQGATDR
Histamine H4 receptor, sequence (Q9H3N8 whole entry): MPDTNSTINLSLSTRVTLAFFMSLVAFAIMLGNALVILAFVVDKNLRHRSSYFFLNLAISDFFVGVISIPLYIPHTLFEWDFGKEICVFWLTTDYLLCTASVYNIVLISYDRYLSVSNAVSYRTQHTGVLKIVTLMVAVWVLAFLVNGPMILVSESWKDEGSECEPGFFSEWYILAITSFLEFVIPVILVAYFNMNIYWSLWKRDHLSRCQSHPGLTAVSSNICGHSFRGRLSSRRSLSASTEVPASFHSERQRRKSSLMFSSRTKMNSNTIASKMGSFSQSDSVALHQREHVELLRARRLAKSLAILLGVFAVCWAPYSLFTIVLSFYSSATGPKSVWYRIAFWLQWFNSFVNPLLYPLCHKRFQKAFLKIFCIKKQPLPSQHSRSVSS
Sodium-dependent dopamine transporter, sequence (Q01959 whole entry): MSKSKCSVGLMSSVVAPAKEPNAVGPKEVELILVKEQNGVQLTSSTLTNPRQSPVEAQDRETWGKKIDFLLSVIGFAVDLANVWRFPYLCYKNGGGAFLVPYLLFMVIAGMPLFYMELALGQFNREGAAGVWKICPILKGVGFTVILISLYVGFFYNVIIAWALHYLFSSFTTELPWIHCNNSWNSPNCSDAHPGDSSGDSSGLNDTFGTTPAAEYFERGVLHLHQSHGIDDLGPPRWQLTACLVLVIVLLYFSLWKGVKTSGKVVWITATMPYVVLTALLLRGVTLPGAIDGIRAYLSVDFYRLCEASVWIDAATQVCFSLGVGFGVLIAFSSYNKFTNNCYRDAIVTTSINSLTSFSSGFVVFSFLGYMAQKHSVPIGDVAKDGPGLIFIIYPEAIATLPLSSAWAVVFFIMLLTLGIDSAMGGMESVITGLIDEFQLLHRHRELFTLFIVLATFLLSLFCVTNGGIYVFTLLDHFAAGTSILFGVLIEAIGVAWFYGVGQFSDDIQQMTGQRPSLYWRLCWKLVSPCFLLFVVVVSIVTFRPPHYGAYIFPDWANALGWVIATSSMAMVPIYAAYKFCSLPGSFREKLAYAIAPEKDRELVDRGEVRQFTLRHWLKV
Histamine H1 receptor, sequence (P35367 whole entry): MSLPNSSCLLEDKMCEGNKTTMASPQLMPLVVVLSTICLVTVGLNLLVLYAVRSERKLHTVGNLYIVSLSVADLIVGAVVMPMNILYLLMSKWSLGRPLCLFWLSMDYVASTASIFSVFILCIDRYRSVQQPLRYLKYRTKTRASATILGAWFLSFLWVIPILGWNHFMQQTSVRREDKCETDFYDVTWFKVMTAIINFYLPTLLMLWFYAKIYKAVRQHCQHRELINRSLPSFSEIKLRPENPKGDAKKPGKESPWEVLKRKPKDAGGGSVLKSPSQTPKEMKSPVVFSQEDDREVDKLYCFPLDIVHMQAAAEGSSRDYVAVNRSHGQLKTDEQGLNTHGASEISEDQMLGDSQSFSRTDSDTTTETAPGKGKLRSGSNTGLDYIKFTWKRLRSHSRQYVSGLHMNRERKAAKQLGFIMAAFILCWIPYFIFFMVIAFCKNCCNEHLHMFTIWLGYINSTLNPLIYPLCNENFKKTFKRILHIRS

Turning to `Cc1cc(OCCCN2CCC[C@@H]2C)ccc1C1=NNC(=O)C2CC12` (mixture of isomers), the figures for the Ki in data set [1] and in data set [2] were 49 nM and 103 nM, respectively.

`Cc1cc(OCCCN2CCC[C@H]2C)ccc1C1=NNC(=O)C2CC12` (mixture of isomers): the Ki worked out at 7 nM in [1] and 66 nM in [2].

For the molecule `Cc1cc(OCCCN2CCCCC2)ccc1C1=NNC(=O)C2CC12` (racemic), the Ki in data set [1] was 39 nM; in [2], 139 nM.

As to `C[C@@H]1CCCN1CCCOc1ccc(C2=NNC(=O)[C@H]3C[C@@H]23)cc1`, the AUC was 221 min in [3], 192 min in data set [4], 231 min in data set [12] and 134 min in data set [25]. Further, the values for the fraction unbound in [5], in [11] and in data set [32] were 0.47, 0.46 and 0.39, respectively. Besides, the Activity entry in data set [6] is “Non-toxic”; in data set [19], “Non-toxic”; in [36], “Dose-dependent effect”. Also, the Ki was 1800 nM in data set [7]; 4.5 nM in data set [1]; 6600 nM in [24]; 14 nM in [2]; greater than 10000 nM in [27]; greater than 10000 nM in data set [28]. Moreover, in [30], the Ki was greater than 10000 nM. Moreover, the solubility in data set [8] and in data set [22] was greater than 4000 µg/mL in each case. For the same molecule, the half-life in [9] was 84 min; in data set [10], greater than 40 min; in [18] it was greater than 40 min; in data set [21] it was greater than 40 min; in data set [23] it was greater than 40 min. In data set [13], this molecule gave an AUC(0-t) of 4660 ng·h/mL. For the same molecule, the EC50 in data set [14] was 0.6 nM. In [15], this molecule displayed an IC50 greater than 30000 nM. This molecule displayed a clearance in data set [16] of 20 mL/min/kg. Besides, the Papp in data set [17] was determined as 15.7 ×10⁻⁶ cm/s. In addition, in data set [20], the bioavailability was found to be 46%. The Time in [26] stood at 85 min; in data set [33], 130 min; in data set [35], 106 min. Moreover, in data set [29], the Vd was determined as 2.5 L/kg. The Kp at 2 h in data set [31] came out at 3.1. In data set [34], this molecule had a Cmax of 738 ng/mL. The 50% effect level in data set [36] (ED50) was put at a dose of 0.21 mg/kg.

Broadly, the Ki is the dissociation constant of the complex between target and ligand, obtained from inhibition or displacement. A word on the solubility: it is the dissolved amount per volume that the medium holds. By half-life is commonly meant how long it takes for the measured level to halve. For orientation: AUC(0-t) means the area under the concentration-time curve up to a stated or last time point. As usually defined, the EC50 is the concentration needed to bring the measured effect to its halfway point. For orientation: IC50 means the concentration that inhibits the measured activity by half. A word on the clearance: it is the rate of elimination divided by the concentration. The Papp is a coefficient for how fast a substance crosses the barrier. One may read the bioavailability as the share of a dose that reaches the circulation, judged against a reference dose that is usually intravenous. Usually Cmax stands for the highest concentration seen after dosing. What is called ED50 is the dose that gives a 50% effect, or the effect in half of the subjects.
